Experimental data taken from patent US20240270741A1 (Cogent Biosciences, Inc., priority 2023, published 2024).

molecular target: FGFR2 (Homo sapiens, UniProt P21802); assay: FGFR wild type enzyme assay (HTRF KinEASE-TK), FGFR2; details: Enz FGFR2 (nM), FGFR2 wild type enzyme assay
Sequence (P21802 399-821 limits assumed): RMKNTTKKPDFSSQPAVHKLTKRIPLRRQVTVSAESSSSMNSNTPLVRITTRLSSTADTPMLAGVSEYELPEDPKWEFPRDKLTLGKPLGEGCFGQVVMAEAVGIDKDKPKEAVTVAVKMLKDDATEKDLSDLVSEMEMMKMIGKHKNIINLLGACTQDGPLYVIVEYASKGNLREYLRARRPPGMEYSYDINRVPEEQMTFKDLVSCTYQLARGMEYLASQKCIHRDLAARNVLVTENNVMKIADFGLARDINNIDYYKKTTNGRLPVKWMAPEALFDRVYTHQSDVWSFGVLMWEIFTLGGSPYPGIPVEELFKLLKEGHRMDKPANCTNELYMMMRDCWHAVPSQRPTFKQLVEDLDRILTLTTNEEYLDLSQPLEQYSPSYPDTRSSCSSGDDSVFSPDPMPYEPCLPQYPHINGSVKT

Compound | IC50 [nM]
COC(=O)N1CCC[C@H](n2cc(-c3cc(Sc4ccccc4C#N)c4c(C#N)cnn4c3)cn2)C1 [Example 482, methyl (S)-3-(4-(3-cyano-4-((2-cyanophenyl)thio)pyrazolo [1,5-a]pyridin-6-yl)-1H-pyrazol-1-yl)piperidine-1-carboxylate] | 1
COC(=O)N1CC[C@H](n2cc(-c3cc(Sc4ccccc4C#N)c4c(C#N)cnn4c3)cn2)C1 [Example 483, methyl (S)-3-(4-(3-cyano-4-((2-cyanophenyl)thio)pyrazolo [1,5-a]pyridin-6-yl)-1H-pyrazol-1-yl)pyrrolidine-1-carboxylate] | 0.5
N#Cc1ccccc1Sc1cc(-c2cnn([C@H]3CCN(C(=O)CO)C3)c2)cn2ncc(C#N)c12 [Example 484, (S)-4-((2-cyanophenyl)thio)-6-(1-(1-(2-hydroxyacetyl)pyrrolidin-3-yl)-1H-pyrazol-4-yl)pyrazolo[1,5-a]pyridine-3-carbonitrile] | 0.4
N#Cc1ccccc1Sc1cc(-c2cnn([C@H]3CCN(CCO)C3)c2)cn2ncc(C#N)c12 [Example 485, (S)-4-((2-cyanophenyl)thio)-6-(1-(1-(2-hydroxyethyl)pyrrolidin-3-yl)-1H-pyrazol-4-yl)pyrazolo[1,5-a]pyridine-3-carbonitrile] | 0.4
Cc1c(-c2cc(Sc3ccc(F)cc3C#N)c3c(C#N)cnn3c2)cnn1CC(C)(C)O [Example 486, 4-((2-cyano-4-fluorophenyl)thio)-6-(1-(2-hydroxy-2-methylpropyl)-5-methyl-1H-pyrazol-4-yl)pyrazolo[1,5-a]pyridine-3-carbonitrile] | 9
N#Cc1ccccc1Sc1cc(-c2cnn([C@H]3CCCNC3)c2)cn2ncc(C#N)c12 [Example 487, (S)-4-((2-cyanophenyl)thio)-6-(1-(piperidin-3-yl)-1H-pyrazol-4-yl)pyrazolo[1,5-a]pyridine-3-carbonitrile] | 0.4
CC(=O)N[C@H]1CC[C@@H](n2ncc(-c3cc(Sc4nc(C)c(F)cc4F)c4c(C#N)cnn4c3)c2C)CC1 [Example 488, N-((1s,4s)-4-(4-(3-cyano-4-((3,5-difluoro-6-methylpyridin-2-yl)thio)pyrazolo[1,5-a]pyridin-6-yl)-5-methyl-1H-pyrazol-1-yl)cyclohexyl)acetamide] | 1
CC(C)(C)n1cc(-c2cc(Sc3ncccc3F)c3c(C#N)cnn3c2)cn1 [Example 489, 6-(1-(tert-butyl)-1H-pyrazol-4-yl)-4-((3-fluoropyridin-2-y)thio)pyrazolo[1,5-a]pyridine-3-carbonitrile] | 3
CC(C)(O)Cn1cc(-c2cc(Sc3ncccc3F)c3c(C#N)cnn3c2)cn1 [Example 490, 4-((3-fluoropyridin-2-yl)thio)-6-(1-(2-hydroxy-2-methylpropyl)-1H-pyrazol-4-yl)pyrazolo[1,5-a]pyridine-3-carbonitrile] | 2
N#Cc1cnn2cc(-c3ccc(N4CCOCC4)nc3)cc(Sc3ncccc3F)c12 [Example 491, 4-((3-fluoropyridin-2-yl)thio)-6-(6-morpholinopyridin-3-yl)pyrazolo[1,5-a]pyridine-3-carbonitrile] | 1
N#Cc1ccccc1Sc1cc(-c2cnn(C[C@@H](O)CO)c2)cn2ncc(C#N)c12 [Example 492, (R)-4-((2-cyanophenyl)thio)-6-(1-(2,3-dihydroxypropyl)-1H-pyrazol-4-yl)pyrazolo[1,5-a]pyridine-3-carbonitrile] | 1
CC(C)(C)n1cc(-c2cc(Sc3ccccc3C#N)c3c(C#N)cnn3c2)cn1 [Example 493, 6-(1-(tert-butyl)-1H-pyrazol-4-yl)-4-((2-cyanophenyl)thio)pyrazolo [1,5-a]pyridine-3-carbonitrile] | 1
CC(C)(O)Cn1cc(-c2cc(Sc3ccccc3C#N)c3c(C#N)cnn3c2)cn1 [Example 494, 4-((2-cyanophenyl)thio)-6-(1-(2-hydroxy-2-methylpropyl)-1H-pyrazol-4-yl)pyrazolo[1,5-a]pyridine-3-carbonitrile] | 1
N#Cc1ccccc1Sc1cc(-c2ccc(N3CCOCC3)nc2)cn2ncc(C#N)c12 [Example 495, 4-((2-cyanophenyl)thio)-6-(6-morpholinopyridin-3-yl)pyrazolo[1,5-a]pyridine-3-carbonitrile] | 1
Cc1c(-c2cc(Sc3ccc(F)cc3C#N)c3c(C#N)cnn3c2)cnn1[C@H]1CCC[C@H](O)C1 [Example 496, 4-((2-cyano-4-fluorophenyl)thio)-6-(1-((1S,3S)-3-hydroxycyclohexyl)-5-methyl-1H-pyrazol-4-yl)pyrazolo[1,5-a]pyridine-3-carbonitrile] | 3
Cc1c(-c2cc(Sc3ccc(F)cc3C#N)c3c(C#N)cnn3c2)cnn1[C@@H]1CCC[C@@H](O)C1 [Example 497, 4-((2-cyano-4-fluorophenyl)thio)-6-(1-((1R,3R)-3-hydroxycyclohexyl)-5-methyl-1H-pyrazol-4-y)pyrazolo[1,5-a]pyridine-3-carbonitrile] | 1

Compound | IC50 [nM]
Cc1c(-c2cc(Sc3ccc(F)cc3C#N)c3c(C#N)cnn3c2)cnn1[C@H]1CCC[C@@H](O)C1 [Example 498, 4-((2-cyano-4-fluorophenyl)thio)-6-(1-((1S,3R)-3-hydroxycyclohexyl)-5-methyl-1H-pyrazol-4-yl)pyrazolo[1,5-a]pyridine-3-carbonitrile] | 2
Cc1c(-c2cc(Sc3ccc(F)cc3C#N)c3c(C#N)cnn3c2)cnn1[C@@H]1CCC[C@H](O)C1 [Example 499, 4-((2-cyano-4-fluorophenyl)thio)-6-(1-((1R,3S)-3-hydroxycyclohexyl)-5-methyl-1H-pyrazol-4-yl)pyrazolo[1,5-a]pyridine-3-carbonitrile] | 1
C[C@]1(O)CC[C@@H](n2cc(-c3cc(Sc4ccc(F)cc4C#N)c4c(C#N)cnn4c3)cn2)CC1 [Example 500, 4-((2-cyano-4-fluorophenyl)thio)-6-(1-((1s,4s)-4-hydroxy-4-methylcyclohexyl)-1H-pyrazol-4-yl)pyrazolo[1,5-a]pyridine-3-carbonitrile] | 1
C[C@]1(O)CC[C@H](n2cc(-c3cc(Sc4ccc(F)cc4C#N)c4c(C#N)cnn4c3)cn2)CC1 [Example 501, 4-((2-cyano-4-fluorophenyl)thio)-6-(1-((1r,4r)-4-hydroxy-4-methylcyclohexyl)-1H-pyrazol-4-yl)pyrazolo[1,5-a]pyridine-3-carbonitrile] | 1
C[C@@H](O)C(=O)N1CCC(n2cc(-c3cc(Sc4ccc(F)cc4C#N)c4c(C#N)cnn4c3)cn2)CC1 [Example 502, (R)-4-((2-cyano-4-fluorophenyl)thio)-6-(1-(1-(2-hydroxypropanoyl)piperidin-4-yl)-1H-pyrazol-4-yl)pyrazolo[1,5-a]pyridine-3-carbonitrile] | 1
C[C@]1(O)CC[C@@H](n2cc(-c3cc(Sc4ccccc4C#N)c4c(C#N)cnn4c3)cn2)CC1 [Example 503, 4-((2-cyanophenyl)thio)-6-(1-((1s,4s)-4-hydroxy-4-methylcyclohexyl)-1H-pyrazol-4-yl)pyrazolo[1,5-a]pyridine-3-carbonitrile] | 0.5
C[C@]1(O)CC[C@H](n2cc(-c3cc(Sc4ccccc4C#N)c4c(C#N)cnn4c3)cn2)CC1 [Example 504, 4-((2-cyanophenyl)thio)-6-(1-((1r,4r)-4-hydroxy-4-methylcyclohexyl)-1H-pyrazol-4-yl)pyrazolo[1,5-a]pyridine-3-carbonitrile] | 0.4
CN1CC(n2cc(-c3cc(Sc4ncccc4F)c4c(C#N)cnn4c3)cn2)CCC1=O (stereo not shown) [Example 505, 4-((3-fluoropyridin-2-yl)thio)-6-(1-(1-methyl-6-oxopiperidin-3-yl)-1H-pyrazol-4-yl)pyrazolo[1,5-a]pyridine-3-carbonitrile] | 3
CN1CCC(n2cc(-c3cc(Sc4ncccc4F)c4c(C#N)cnn4c3)cn2)CC1=O (stereo not shown) [Example 506, 4-((3-fluoropyridin-2-yl)thio)-6-(1-(1-methyl-2-oxopiperidin-4-yl)-1H-pyrazol-4-yl)pyrazolo[1,5-a]pyridine-3-carbonitrile] | 1
N#Cc1nn([C@H]2CCCNC2)cc1-c1cc(Sc2ncccc2F)c2c(C#N)cnn2c1 [Example 507, (S)-6-(3-cyano-1-(piperidin-3-yl)-1H-pyrazol-4-yl)-4-((3-fluoropyridin-2-y)thio)pyrazolo[1,5-a]pyridine-3-carbonitrile] | 30
CNC(=O)c1nn([C@H]2CCCNC2)cc1-c1cc(Sc2ncccc2F)c2c(C#N)cnn2c1 [Example 508, (S)-4-(3-cyano-4-((3-fluoropyridin-2-yl)thio)pyrazolo[1,5-a]pyridin-6-yl)-N-methyl-1-(piperidin-3-yl)-1H-pyrazole-3-carboxamide] | 48
N#Cc1cnn2cc(-c3cn([C@H]4CCCNC4)c4nccnc34)cc(Sc3ncccc3F)c12 [Example 509, (S)-4-((3-fluoropyridin-2-yl)thio)-6-(5-(piperidin-3-yl)-5H-pyrrolo[2,3-b]pyrazin-7-yl)pyrazolo[1,5-a]pyridine-3-carbonitrile] | 22
CC(C)(CO)N1CC[C@H](n2cc(-c3cc(Sc4ncccc4F)c4c(C#N)cnn4c3)cn2)C1 [Example 510, (S)-4-((3-fluoropyridin-2-yl)thio)-6-(1-(1-(1-hydroxy-2-methylpropan-2-yl)pyrrolidin-3-yl)-1H-pyrazol-4-yl)pyrazolo[1,5-a]pyridine-3-carbonitrile] | 1
Cc1c(-c2cc(Sc3ccc(F)cc3C#N)c3c(C#N)cnn3c2)cnn1CCO [Example 511, 4-((2-cyano-4-fluorophenyl)thio)-6-(1-(2-hydroxyethyl)-5-methyl-1H-pyrazol-4-yl)pyrazolo[1,5-a]pyridine-3-carbonitrile] | 8
Cc1c(-c2cc(Sc3ccc(F)cc3C#N)c3c(C#N)cnn3c2)cnn1[C@H]1CCCN(C(=O)[C@@H](C)O)C1 [Example 512, 4-((2-cyano-4-fluorophenyl)thio)-6-(1-((S)-1-((R)-2-hydroxypropanoyl)piperidin-3-yl)-5-methyl-1H-pyrazol-4-yl)pyrazolo[1,5-a]pyridine-3-carbonitrile] | 1
